# Test results from US20080207705A1, “Heteroaryl-Imidazole Derivatives as Cannabinoid CB1 Receptor Antagonists” (Green Cross Corporation, priority 2007, published 2008).
# Target: T1, rat CB-1 receptor (Rattus norvegicus, UniProt P20272)
# T1 construct: The tissue obtained from the brain of SD rats was homogenized; from tissue; host or cells: brain of SD rats (membrane pellet of homogenate)
# Experiment: rat CB-1 receptor binding protocol with [3H]CP-55940
# Details: not given
# T1 sequence (P20272 whole entry): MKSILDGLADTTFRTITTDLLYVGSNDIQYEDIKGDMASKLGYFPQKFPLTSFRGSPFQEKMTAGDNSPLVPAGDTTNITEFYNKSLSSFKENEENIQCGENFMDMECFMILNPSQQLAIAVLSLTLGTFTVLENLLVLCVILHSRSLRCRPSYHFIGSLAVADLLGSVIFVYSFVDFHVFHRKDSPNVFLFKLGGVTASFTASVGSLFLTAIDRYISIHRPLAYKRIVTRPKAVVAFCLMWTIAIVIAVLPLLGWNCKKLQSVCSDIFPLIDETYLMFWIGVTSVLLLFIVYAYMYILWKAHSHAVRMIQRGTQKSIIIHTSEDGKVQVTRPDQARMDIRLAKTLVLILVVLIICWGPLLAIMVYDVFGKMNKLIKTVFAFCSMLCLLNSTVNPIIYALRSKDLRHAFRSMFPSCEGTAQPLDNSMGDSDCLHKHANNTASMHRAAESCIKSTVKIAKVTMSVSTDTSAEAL
row,Compound,IC50 [nM]
1,"CC(C)(C)c1nnc(-c2nc(-c3ccc(Cl)cc3Cl)n(-c3ccc(Cl)cc3)c2C2CC2)s1 [Example 113, 2-tert-Butyl-5-(1-(4-chlorophenyl)-5-cyclopropyl-2-(2,4-dichlorophenyl)-1H-imidazol-4-yl)-1,3,4-thiadiazole]",58

# Same assay, conditions: [3H]CP-55940, brain tissue of SD rats, 30 °C for 60 min; read-out: IC50
row,Compound,IC50 [nM]
1,"Clc1ccc(-n2c(-c3ccc(Cl)cc3Cl)nc(-c3nnc(C4(c5ccc(Cl)cc5)CC4)o3)c2Cn2cncn2)cc1 [Example 88, 2-(5-((1H-1,2,4-Triazol-1-yl)methyl)-1-(4-chlorophenyl)-2-(2,4-dichlorophenyl)-1H-imidazol-4-yl)-5-(1-(4-chlorophenyl)cyclopropyl)-1,3,4-oxadiazole]",1.53
2,"FC(F)(F)C1(c2nnc(-c3nc(-c4ccc(Cl)cc4Cl)n(-c4ccc(Cl)cc4)c3Cn3cncn3)o2)CC1 [Example 89, 2-(5-((1H-1,2,4-Triazol-1-yl)methyl)-1-(4-chlorophenyl)-2-(2,4-dichlorophenyl)-1H-imidazol-4-yl)-5-(1-(trifluoromethyl)cyclopropyl)-1,3,4-oxadiazole]",1.14
3,"Cc1c(-c2nnc(C(C)(C)C)s2)nc(-c2ccc(Cl)cc2Cl)n1-c1ccc(Cl)cc1 [Example 90, 2-tert-Butyl-5-(1-(4-chlorophenyl)-2-(2,4-dichlorophenyl)-5-methyl-1H-imidazol-4-yl)-1,3,4-thiadiazole]",20.2
4,"Cc1c(-c2nnc(C3CCCCC3)s2)nc(-c2ccc(Cl)cc2Cl)n1-c1ccc(Cl)cc1 [Example 91, 2-(1-(4-Chlorophenyl)-2-(2,4-dichlorophenyl)-5-methyl-1H-imidazol-4-yl)-5-cyclohexyl-1,3,4-thiadiazole]",46
5,"Cc1c(-c2nnc(C3CCCC3)s2)nc(-c2ccc(Cl)cc2Cl)n1-c1ccc(Cl)cc1 [Example 92, 2-(1-(4-Chlorophenyl)-2-(2,4-dichlorophenyl)-5-methyl-1H-imidazol-4-yl)-5-cyclopentyl-1,3,4-thiadiazole]",10.8
6,"Cc1c(-c2nnc(C3CCC3)s2)nc(-c2ccc(Cl)cc2Cl)n1-c1ccc(Cl)cc1 [Example 93, 2-(1-(4-Chlorophenyl)-2-(2,4-dichlorophenyl)-5-methyl-1H-imidazol-4-yl)-5-cyclobutyl-1,3,4-thiadiazole]",42.3
7,"Cc1c(-c2nnc(C3CCCCCC3)s2)nc(-c2ccc(Cl)cc2Cl)n1-c1ccc(Cl)cc1 [Example 94, 2-(1-(4-Chlorophenyl)-2-(2,4-dichlorophenyl)-5-methyl-1H-imidazol-4-yl)-5-cycloheptyl-1,3,4-thiadiazole]",21.6
8,"CCCCC(C)c1nnc(-c2nc(-c3ccc(Cl)cc3Cl)n(-c3ccc(Cl)cc3)c2C)s1 (stereo not shown) [Example 95, 2-(1-(4-Chlorophenyl)-2-(2,4-dichlorophenyl)-5-methyl-1H-imidazol-4-yl)-5-(hexan-2-yl)-1,3,4-thiadiazole]",15
9,"CCCC(C)c1nnc(-c2nc(-c3ccc(Cl)cc3Cl)n(-c3ccc(Cl)cc3)c2C)s1 (stereo not shown) [Example 96, 2-(1-(4-Chlorophenyl)-2-(2,4-dichlorophenyl)-5-methyl-1H-imidazol-4-yl)-5-(pentan-2-yl)-1,3,4-thiadiazole]",12.7
10,"CCC(C)c1nnc(-c2nc(-c3ccc(Cl)cc3Cl)n(-c3ccc(Cl)cc3)c2C)s1 (stereo not shown) [Example 97, 2-sec-Butyl-5-(1-(4-chlorophenyl)-2-(2,4-dichlorophenyl)-5-methyl-1H-imidazol-4-yl)-1,3,4-thiadiazole]",28.1
11,"Cc1c(-c2nnc(C(C)C)s2)nc(-c2ccc(Cl)cc2Cl)n1-c1ccc(Cl)cc1 [Example 98, 2-(1-(4-Chlorophenyl)-2-(2,4-dichlorophenyl)-5-methyl-1H-imidazol-4-yl)-5-isopropyl-1,3,4-thiadiazole]",22.2
12,"CCC(CC)c1nnc(-c2nc(-c3ccc(Cl)cc3Cl)n(-c3ccc(Cl)cc3)c2C)s1 [Example 99, 2-(1-(4-Chlorophenyl)-2-(2,4-dichlorophenyl)-5-methyl-1H-imidazol-4-yl)-5-(pentan-3-yl)-1,3,4-thiadiazole]",19.7
13,"Cc1c(-c2nnc(C(C)c3ccccc3)s2)nc(-c2ccc(Cl)cc2Cl)n1-c1ccc(Cl)cc1 (stereo not shown) [Example 100, 2-(1-(4-Chlorophenyl)-2-(2,4-dichlorophenyl)-5-methyl-1H-imidazol-4-yl)-5-(1-phenylethyl)-1,3,4-thiadiazole]",16.9
14,"CCc1c(-c2nnc(C3CCCC3)s2)nc(-c2ccc(Cl)cc2Cl)n1-c1ccc(Cl)cc1 [Example 102, 2-(1-(4-Chlorophenyl)-2-(2,4-dichlorophenyl)-5-ethyl-1H-imidazol-4-yl)-5-cyclopentyl-1,3,4-thiadiazole]",17.6
15,"CCc1c(-c2nnc(C3CCC3)s2)nc(-c2ccc(Cl)cc2Cl)n1-c1ccc(Cl)cc1 [Example 103, 2-(1-(4-Chlorophenyl)-2-(2,4-dichlorophenyl)-5-ethyl-1H-imidazol-4-yl)-5-cyclobutyl-1,3,4-thiadiazole]",16.1
16,"CCc1c(-c2nnc(C(C)(C)C)s2)nc(-c2ccc(Cl)cc2Cl)n1-c1ccc(Cl)cc1 [Example 104, 2-tert-Butyl-5-(1-(4-chlorophenyl)-2-(2,4-dichlorophenyl)-5-ethyl-1H-imidazol-4-yl)-1,3,4-thiadiazole]",15.8
17,"CCCCC(C)c1nnc(-c2nc(-c3ccc(Cl)cc3Cl)n(-c3ccc(Cl)cc3)c2CC)s1 (stereo not shown) [Example 105, 2-(1-(4-Chlorophenyl)-2-(2,4-dichlorophenyl)-5-ethyl-1H-imidazol-4-yl)-5-(hexan-2-yl)-1,3,4-thiadiazole]",8.05
18,"CCCC(C)c1nnc(-c2nc(-c3ccc(Cl)cc3Cl)n(-c3ccc(Cl)cc3)c2CC)s1 (stereo not shown) [Example 106, 2-(1-(4-Chlorophenyl)-2-(2,4-dichlorophenyl)-5-ethyl-1H-imidazol-4-yl)-5-(pentan-2-yl)-1,3,4-thiadiazole]",12.9
19,"CCc1c(-c2nnc(C(C)CC)s2)nc(-c2ccc(Cl)cc2Cl)n1-c1ccc(Cl)cc1 (stereo not shown) [Example 107, 2-sec-Butyl-5-(1-(4-chlorophenyl)-2-(2,4-dichlorophenyl)-5-ethyl-1H-imidazol-4-yl)-1,3,4-thiadiazole]",8.46
20,"Cc1c(-c2nnc(C3CCCCC3)s2)nc(-c2ccc(Cl)cc2Cl)n1-c1ccc(Br)cc1 [Example 108, 2-(1-(4-Bromophenyl)-2-(2,4-dichlorophenyl)-5-methyl-1H-imidazol-4-yl)-5-cyclohexyl-1,3,4-thiadiazole]",56.6
21,"Cc1c(-c2nnc(C(C)(C)C)s2)nc(-c2ccc(Cl)cc2Cl)n1-c1ccc(Br)cc1 [Example 109, 2-(1-(4-Bromophenyl)-2-(2,4-dichlorophenyl)-5-methyl-1H-imidazol-4-yl)-5-tert-butyl-1,3,4-thiadiazole]",3.45
22,"CCc1c(-c2nnc(C(C)(C)C)s2)nc(-c2ccc(Cl)cc2Cl)n1-c1ccc(Br)cc1 [Example 110, 2-(1-(4-Bromophenyl)-2-(2,4-dichlorophenyl)-5-ethyl-1H-imidazol-4-yl)-5-tert-butyl-1,3,4-thiadiazole]",1.91
23,"Cc1c(-c2nnc(C3CCC3)s2)nc(-c2ccc(Cl)cc2Cl)n1-c1ccc(Br)cc1 [Example 111, 2-(1-(4-Bromophenyl)-2-(2,4-dichlorophenyl)-5-methyl-1H-imidazol-4-yl)-5-cyclobutyl-1,3,4-thiadiazole]",27.8
24,"CCc1c(-c2nnc(C3CCC3)s2)nc(-c2ccc(Cl)cc2Cl)n1-c1ccc(Br)cc1 [Example 112, 2-(1-(4-Bromophenyl)-2-(2,4-dichlorophenyl)-5-ethyl-1H-imidazol-4-yl)-5-cyclobutyl-1,3,4-thiadiazole]",14
